Test results: patent US9133139B2, “Fluoroalkyl-1,4-benzodiazepinone compounds” (BRISTOL-MYERS SQUIBB COMPANY, priority 2012, dated 2015)

Key:
[1] = Human metabolic stability half-life assay (liver microsomes); format: in vitro ADME; details: pH 7.4, human liver microsomes, CYP-mediated (NADPH-dependent), 0.5 μM compound, 45-minute time course, read-out: HLM (t1/2, min)
Method: Metabolic Stability Half-Life Panel
Result Interpretation Guideline
Incubation with Liver Microsomes
Sample Analysis—Instrumentation

human Notch 3 = test: Notch-CBF1 Transactivation Assay (luciferase reporter, transfected HeLa cells), Notch 3; format: cell-based; details: read-out: Notch 3 (IC50); HeLa cells transfected with truncated Notch 3 and CBF1 luciferase reporter, 18 hours incubation
Excerpt: (§1) Notch-CBF1 Transactivation Assay
(§2) The Notch-CBF1 (C-promoter binding factor I) cell based transactivation assay is based on the ability of the released Notch intracellular domain fragments (NICDs) to function as transcription factors in conjunction with CBF1 and other nuclear factors. Luciferase assays were used to measure the antagonism of Notch-CBF1 transcriptional activity. HeLa cervical cancer cells are transiently co-transfected with pCDNA3.1/Hygro plasmids containing truncated Notch 1, Notch 2, Notch 3, or Notch 4 receptors and a PGL3 luciferase reporter vector containing 4 copies of CBF1 binding site. The cells were then tested for Notch-CBF1 activity in the absence or presence of test compounds. HeLa cells, maintained in DMEM (high glucose with HEPES), 1× glutamine/penicillin/streptomycin and 10% Fetal Bovine serum, were transiently transfected in a T175 Flask (4.5×10^6 cells/flask) using the Monster Transfection Kit (Minis #MIR2906) according to manufacturers specifications. Table 2 denotes respective DNA quantity for the transfections.
(§3) Assay media (5 μL) containing test compounds in final concentrations ranging from 5 μM to 8.4×10^−5 μM (3 fold serial dilutions) were added to the cells and the cell plates were then incubated for 18 hours at 37° C. and 5% CO2. Control wells contained DMSO vehicle (total counts) or 0.5 μM of an in-house small molecule inhibitor (background counts). Duplicates were used for each sample. Luciferase activity was measured after a 20-minute incubation with 50 μl STEADY-GLO® luciferase reagents according to manufacturer's specifications (Promega, Cat. #E2550) and analyzed by Envision plate reader (PerkinElmer, Boston, Mass.).
(§4) The antagonist effect of compounds was expressed as 100×[1−(average sample−average background)/(average total−average background)] where sample is the luciferase activity in the presence of test compound, background is equal to the luciferase activity in the presence of the small molecule inhibitor control and the total is signal induced in DMSO wells.

human Notch 1 = test: Notch-CBF1 Transactivation Assay (luciferase reporter, transfected HeLa cells), Notch 1; format: cell-based; details: read-out: Notch 1 (IC50); HeLa cells transfected with truncated Notch 1 and CBF1 luciferase reporter, 18 hours incubation
Excerpt: as §1, §2, §3, §4

TALL-1 = test: Human Tumor Xenograft Models in Mice, TALL-1; format: in vivo; details: for Antitumor Activity in TALL-1 (LCK), BID dosing: oral, BID × 10, TALL-1 xenograft in NOD-SCID mice; for antitumor activity with oral administration (PO): Human Tumor Xenograft Models in mice
Method: Human Tumor Xenograft Models in Mice
Mice were fed food and water ad libitum.
Preclinical Chemotherapy Trials
When death occurred, the day of death was recorded.
In Vivo Antitumor Activity

[2] = High Throughput (HT) Metabolic Stability Panel, monkey microsomes; format: in vitro ADME; details: ten-minute incubation, control compound expected values
Method: (§5) High Throughput (HT) Metabolic Stability Panel
(§6) Each compound was tested in duplicate.
(§7) Methods and Materials Incubation with Liver Microsomes
(§8) Peak integration was performed with the XCALIBUR® software.
(§9) A set of three compounds was tested along with the test compound in each assay plate.

[3] = High Throughput (HT) Metabolic Stability Panel, dog microsomes; format: in vitro ADME; details: ten-minute incubation, control compound expected values
Method: as §5, §6, §7, §8, §9

[4] = High Throughput (HT) Metabolic Stability Panel, human microsomes; format: in vitro ADME; details: ten-minute incubation, control compound expected values
Method: as §5, §6, §7, §8, §9

[5] = High Throughput (HT) Metabolic Stability Panel, rat microsomes; format: in vitro ADME; details: ten-minute incubation, control compound expected values
Method: as §5, §6, §7, §8, §9

[6] = High Throughput (HT) Metabolic Stability Panel, mouse microsomes; format: in vitro ADME; details: ten-minute incubation, control compound expected values
Method: as §5, §6, §7, §8, §9

Row | SMILES | half-life at 0.5 μM [1] | IC50 (human Notch 3) | IC50 (human Notch 1) | antitumor activity with oral administration (PO) (TALL-1) | further results
1 | Cc1cccc2c1NC(=O)[C@@H](NC(=O)[C@H](CCC(F)(F)F)[C@@H](C(N)=O)c1ccccc1)N=C2c1cccc(F)c1 [Example 5, (2R,3R)—N1-((S)-5-(3-Fluorophenyl)-9-methyl-2-oxo-2,3-dihydro-1H-benzo[e][1,4]diazepin-3-yl)-3-phenyl-2-(3,3,3-trifluoropropyl)succinamide] | ≥ 30 min | 14.2 nM |  |  | 
2 | NC(=O)[C@@H](c1cccnc1)[C@@H](CCC(F)(F)F)C(=O)N[C@H]1N=C(c2ccccc2)c2ccccc2NC1=O [Example 10, (2R,3R)—N1-((S)-2-Oxo-5-phenyl-2,3-dihydro-1H-benzo[e][1,4]diazepin-3-yl)-3-(pyridin-3-yl)-2-(3,3,3-trifluoropropyl)succinamide] |  | 22.9 nM | 19.3 nM |  | 
3 | NC(=O)[C@@H](c1ccccc1)[C@@H](CCC(F)(F)F)C(=O)N[C@H]1N=C(c2ccccc2)c2ccccc2N(c2ccc(Cl)cn2)C1=O [Example 22, (2R,3R)—N-((3S)-1-(5-Chloro-2-pyridinyl)-2-oxo-5-phenyl-2,3-dihydro-1H-1,4-benzodiazepin-3-yl)-3-phenyl-2-(3,3,3-trifluoropropyl)succinamide] |  | 11.6 nM | 16 nM |  | 
4 | Cc1nocc1[C@H](C(N)=O)[C@@H](CCC(F)(F)F)C(=O)N[C@H]1N=C(c2ccccc2)c2ccccc2N(c2ccc(Cl)cn2)C1=O [Example 23, (2R,3R)—N-((3S)-1-(5-Chloro-2-pyridinyl)-2-oxo-5-phenyl-2,3-dihydro-1H-1,4-benzodiazepin-3-yl)-3-(3-methyl-4-isoxazolyl)-2-(3,3,3-trifluoropropyl)succinamide] | ≥ 30 min | 13.7 nM | 15.4 nM |  | 
5 | COc1cc(C#N)cc2c1NC(=O)[C@@H](NC(=O)[C@H](CCC(F)(F)F)[C@@H](C(N)=O)c1ccccc1)N=C2c1ccccc1 [Example 25, (2R,3R)—N1-((S)-7-Cyano-9-methoxy-2-oxo-5-phenyl-2,3-dihydro-1H-benzo[e][1,4]diazepin-3-yl)-3-phenyl-2-(3,3,3-trifluoropropyl)succinamide] |  | 19.1 nM | 24.2 nM |  | 
6 | NC(=O)[C@@H](c1ccccc1)[C@@H](CCC(F)(F)F)C(=O)N[C@H]1N=C(c2ccccc2)c2cccc(OC3CC3)c2NC1=O [Example 26, (2R,3R)—N1-((S)-9-Cyclopropoxy-2-oxo-5-phenyl-2,3-dihydro-1H-benzo[e][1,4]diazepin-3-yl)-3-phenyl-2-(3,3,3-trifluoropropyl)succinamide] | ≥ 30 min |  |  | showed antitumor activity | Antitumor Activity in TALL-1 (LCK), BID dosing (TALL-1; Dose 10 (unit not given)): 1.4 LCK
7 | Cc1cccc2c1NC(=O)[C@@H](NC(=O)[C@H](CCC(F)(F)F)[C@@H](C(N)=O)c1ccccc1)N=C2c1ccccc1 [Example 30, (2R,3R)—N1-((S)-9-Methyl-2-oxo-5-phenyl-2,3-dihydro-1H-benzo[e][1,4]diazepin-3-yl)-3-phenyl-2-(3,3,3-trifluoropropyl)succinamide] | ≥ 30 min |  |  | showed antitumor activity | Antitumor Activity in TALL-1 (LCK), BID dosing (TALL-1; Dose 20 (unit not given)): 1.2 LCK
8 | Cc1cccc2c1NC(=O)[C@@H](NC(=O)[C@H](CCC(F)(F)F)[C@@H](C(N)=O)c1ccccc1)N=C2c1cccc(Cl)c1 [Example 31, (2R,3R)—N1-((S)-5-(3-Chlorophenyl)-9-methyl-2-oxo-2,3-dihydro-1H-benzo[e][1,4]diazepin-3-yl)-3-phenyl-2-(3,3,3-trifluoropropyl)succinamide] | ≥ 30 min |  |  | showed antitumor activity | 
9 | Cc1cccc2c1NC(=O)[C@@H](NC(=O)[C@H](CCC(F)(F)F)[C@@H](C(N)=O)c1conc1C)N=C2c1ccc(F)cc1 [Example 33, (2R,3R)—N1-((S)-5-(4-Fluorophenyl)-9-methyl-2-oxo-2,3-dihydro-1H-benzo[e][1,4]diazepin-3-yl)-3-(3-methylisoxazol-4-yl)-2-(3,3,3-trifluoropropyl)succinamide] | ≥ 30 min | 11.5 nM | 19 nM |  | 
10 | CCc1nn(CCCN2CCN(c3cccc(Cl)c3)CC2)c(=O)n1CCOc1ccccc1 [Nefazodone] |  |  |  |  | Average Percent Remaining ± SD, Monkey [2]: 0.6 ± 0.5%; Average Percent Remaining ± SD, Dog [3]: 0.4 ± 0.4%; Average Percent Remaining ± SD, Human [4]: 0.4 ± 0.4%; Average Percent Remaining ± SD, Rat [5]: 0.7 ± 0.6%; Average Percent Remaining ± SD, Mouse [6]: 0.4 ± 0.3%
